Legend:
IRAK4 [1] = target: T1, IRAK4 (Homo sapiens, UniProt Q9NWZ3); assay: Reaction Biology NanoBRET target engagement assay, IRAK4; format: cell-based; settings: HEK-293 cells transfected with Kinase-NanoLuc fusion vector, live cells
T1 sequence (Q9NWZ3 1-460): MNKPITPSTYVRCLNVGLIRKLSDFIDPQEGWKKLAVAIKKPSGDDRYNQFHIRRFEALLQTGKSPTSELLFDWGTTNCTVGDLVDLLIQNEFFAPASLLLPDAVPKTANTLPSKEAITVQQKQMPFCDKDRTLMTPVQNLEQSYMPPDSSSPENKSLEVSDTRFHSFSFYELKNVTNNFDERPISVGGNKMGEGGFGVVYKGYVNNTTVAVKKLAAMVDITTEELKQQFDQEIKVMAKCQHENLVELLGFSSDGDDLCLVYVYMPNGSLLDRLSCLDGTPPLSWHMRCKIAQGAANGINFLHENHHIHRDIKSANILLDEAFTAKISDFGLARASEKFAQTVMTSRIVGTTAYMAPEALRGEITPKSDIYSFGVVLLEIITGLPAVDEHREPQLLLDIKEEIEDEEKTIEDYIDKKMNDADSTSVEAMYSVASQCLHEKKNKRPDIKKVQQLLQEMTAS
Text: The NanoBRET assay measures kinase engagement in real time in the context of the intact cell. Unlike the previously described biochemical kinase assay methodologies in Examples 47 and 48, the NanoBRET assay measures the binding and activity characteristics under equilibrium conditions using full-length kinases in the presence of cellular concentrations of ATP in live, uncompromised cells. […] The assay uses a Kinase-NanoLuc® fusion vector expressing a kinase protein to which a luciferase tag has been added, a cell-permeant fluorescent NanoBRET™ tracer, a NanoLuc® substrate, and an extracellular NanoLuc® inhibitor. Upon expression of the luciferase-tagged kinase, cells will produce a strong BRET signal only in the presence of the NanoBRET™ tracer. The extracellular NanoLuc® inhibitor ensures that the BRET signal observed emanates only from live cells. Because the BRET signal has tight distance constraints, addition of the test compound will decrease the BRET signal if the compound competes with the NanoBRET™ tracer for binding to the kinase domain. Under the appropriate tracer conditions established by the manufacturer, quantitative intracellular affinity and relative potency can then be determined using Mass Action model equations.
HEK-293 cells were purchased from ATCC. FuGENEHD Transfection Reagent, Kinase-NanoLucfusion plasmids, Transfection Carrier DNA, NanoBRETTracers and dilution buffer, NanoBRETNano-Glo Substrate, Extracellular NanoLucInhibitor were obtained from Promega.
Assays were conducted following Promega assay protocol with some modifications. HEK-293 Cells were transiently transfected with Kinase-NanoLucFusion Vector DNA by FuGENEHD Transfection Reagent. Testing compounds were delivered into 384 well assay plate by Echo 550 (LabcyteInc, Sunnyvale, CA). Transfected cells were harvested and mixed with NanoBRETTracer Reagent and dispensed into 384 well plates and incubated at 37° C. in 5% CO2 cell culture incubator for 1 hour. The NanoBRETNano-Glo Substrate plus Extracellular NanoLucInhibitor Solution were added into the wells of the assay plate and incubated for 2-3 minutes at room temperature. The donor emission wavelength (460 nm) and acceptor emission wavelength (600 nm) were measured in the EnVisionplate reader. The BRET Ratios were calculated. BRET Ratio=[(Acceptor sample÷Donor sample)−(Acceptor no-tracer control÷Donor no-tracer control)]. The IC50 values of compounds were calculated with Prism GraphPad program.
• 1). Cultivate HEK-293 cells (70-80% confluence) appropriately prior to assay. Trypsinize and collect HEK-293 cells. • 2). Prepare lipid: DNA complexes as follows: • a. Prepare a 10 μg/ml solution of DNA in Opti-MEM without serum that consists of the following ratios of carrier DNA and DNA encoding NanoLuc® fusion. […] of Transfection Carrier DNA, […] of NanoLuc fusion vector DNA and 1 mL of Opti-MEM without phenol red. Mix thoroughly. • b. Add 30 μl of FuGENE HD Transfection Reagent into each milliliter of DNA mixture to form lipid: DNA complex. • c. Mix by inversion 10 times. • d. Incubate at ambient temperature for 20 minutes to allow complexes to form. • 3). In a sterile, conical tube, mix 1 part of lipid:DNA complex with 20 parts of HEK-293 cells in suspension. Mix gently by inversion 5 times. • 4). Dispense cells+lipid: DNA complex into a sterile tissue culture dish and incubate for 22-24 hours.
Each test compound is delivered from the compound source plate to the wells of 384-well white NBS plate by Echo 550.
3. Preparation of Cells with NanoBRET™ Tracer Reagent • 1). Remove medium from dish with transfected HEK-293 cells via aspiration, trypsinize and allow cells to dissociate from the dish. • 2). Neutralize trypsin using medium containing serum and centrifuge at 200× g for 5 minutes to pellet the cells. Adjust the cell density to […] cells/mL in Opti-MEM without phenol red. • 3). Prepare Complete 20× NanoBRET™ Tracer Reagent with Tracer Dilution Buffer. • 4). […]

IRAK4 [2] = target: T1, IRAK4; assay: RBC HotSpot Kinase Assay, IRAK4; format: biochemical; design: purchased RBC (Reaction Biology) HotSpot assay; settings: HotSpot functional assay, isolated kinase enzyme, 33P-ATP
How it was run: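 Isolated kinases, possibly truncated or lacking regulatory receptor regions, were preincubated with compound for 20 min at room temp in 20 mM Hepes pH 7.5, 10 mM MgCl2, 1 mM EGTA, 2 mM DTT, 1% DMSO. Reactions were started with ^33P-ATP and run 2 h at room temperature; activity was read by P81 filter binding.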

SMILES	IC50 (IRAK4 [1])	IC50 (IRAK4 [2])
COc1cc2ncc(-c3nc(N[C@H]4CNCC[C@@H]4F)c(F)cc3F)n2nc1C(C)(O)C(F)(F)F (single isomer, unassigned) [Compound 77a]	0.4 nM	16 nM
COc1cc2ncc(-c3nc(N[C@H]4CNC[C@@H]4F)c(F)cc3F)n2nc1C(C)(O)C(F)(F)F (single isomer, unassigned) [Compound 80a]	5 nM	24 nM
COc1cc2ncc(-c3nc(N[C@@H]4CCCNC4)c(F)cc3F)n2nc1C(C)(O)C(F)(F)F (single isomer, unassigned) [Compound 81a]	0.6 nM	59 nM
COc1cc2ncc(-c3nc(N[C@H]4CNCC[C@@H]4F)c(F)cc3F)n2nc1C1CC2(CCC2)C1 [Compound 10a, 3,5-difluoro-N-((3S,4S)-4-fluoropiperidin-3-yl)-6-(7-methoxy-6-(spiro[3.3]heptan-2-yl)imidazo[1,2-b]pyridazin-3-yl)pyridin-2-amine]	64 nM	22 nM
COc1cc2ncc(-c3nc(N[C@H]4CNC[C@@H]4F)c(F)cc3F)n2nc1C1CC2(CCC2)C1 [Compound 12a, 3,5-difluoro-N-((3S,4S)-4-fluoropyrrolidin-3-yl)-6-(7-methoxy-6-(spiro[3.3]heptan-2-yl)imidazo[1,2-b]pyridazin-3-yl)pyridin-2-amine]	71 nM	6 nM
COc1cc2ncc(-c3nc(N[C@H]4CNCC[C@@H]4F)c(F)cc3F)n2nc1C1CCC1 [Compound 15a, 6-(6-cyclobutyl-7-methoxyimidazo[1,2-b]pyridazin-3-yl)-3,5-difluoro-N-((3S,4S)-4-fluoropiperidin-3-yl)pyridin-2-amine]	1 nM	2 nM
COc1cc2ncc(-c3nc(N[C@H]4CNCC[C@@H]4F)c(F)cc3F)n2nc1C12CC(C1)C2 [Compound 67a, 6-(6-(bicyclo[1.1.1]pentan-1-yl)-7-methoxyimidazo[1,2-b]pyridazin-3-yl)-3,5-difluoro-N-((3S,4S)-4-fluoropiperidin-3-yl)pyridin-2-amine]	5 nM	3 nM

Reference: patent US20250368648A1, “MULTI-CYCLIC IRAK AND FLT3 INHIBITING COMPOUNDS AND USES THEREOF” (CHILDREN'S HOSPITAL MEDICAL CENTER, priority 2022, published 2025)
